This note sets out measurements from patent publication US8466149B2, “6-substituted sulfonyl azabicyclo[3.2.1]octanes useful to inhibit 11β-hydroxysteroid dehydrogenase type-I” (Merck Sharp & Dohme Corp., priority 2007, dated 2013).

The target in one assay is T1, Human 11β-HSD1 (Homo sapiens, UniProt P28845).
T1 construct: myc (N); made in house; host or cells: Sf9 cells (baculovirus, Bac-to-Bac)
The assay is described as follows: In vitro 11β-HSD1 activity assay (SPA, 3H-cortisone, membranes). The format is biochemical. The note with it: human 11β-HSD1 membranes, 125 nM 3H-cortisone, read-out: Human 11β-HSD-1 IC50. As for the experimental part: In vitro 11β-HSD1 activity assay Preparation of 11β-HSD1 membranes
Human 11β-HSD1 with N-terminal myc tag was expressed in Sf9 cells using baculovirus Bac-to-Bac expression system (Invitrogen) according to manufacturer's instructions. Cells were harvested three days after infection and washed in PBS before frozen. To make membranes, the cells were resuspended in buffer A (20 mM Tris-HCl, pH7.4, 100 mM NaCl, 2 mM EDTA, 2 mM EGTA and Complete™ protease inhibitor tablets (Roche Molecular Biochemicals)), and lysed in a nitrogen bomb at 900 psi. The cell lysate was centrifuged at 600 g for 10 min to remove nuclei and large cell debris. The supernatant was centrifuged at 100,000 g for 1 hr. The membrane pellet was resuspended in buffer A, flash-frozen in liquid nitrogen and stored at −70° C. before use.
(§1) Measurement of 11β-HSD1 activity
(§2) 11β-HSD1 enzymatic activity was measured in a 50 μl reaction containing 20 mM NaPO4 pH 7.5, 0.1 mM MgCl2, 3 mM NADPH (prepared fresh daily), 125 nM ^3H-cortisone (American Radiochemicals) and 0.5 μg membrane. The reaction was incubated at room temperature for 1 hr before it was stopped by addition of […] containing 20 mM NaPO4 pH 7.5, 30 μM 18β-glycyrrhetinic acid, 1 μg/ml monoclonal anti-cortisol antibody (Biosource) and 2 mg/ml anti-mouse antibody coated scintillation proximity assay (SPA) beads (Amersham Bioscience). The mixture was incubated at room temperature for 2 hrs with vigorous shaking and analyzed on TopCount scintillation counter.

For a further assay, the target named is Mouse 11β-HSD-1 (Mus musculus, UniProt P50172). The assay is described as follows: In vitro 11β-HSD1 activity assay, mouse enzyme. It is filed as biochemical. How it is done: as §1, §2
Chain of Mouse 11β-HSD-1 (P50172 whole entry): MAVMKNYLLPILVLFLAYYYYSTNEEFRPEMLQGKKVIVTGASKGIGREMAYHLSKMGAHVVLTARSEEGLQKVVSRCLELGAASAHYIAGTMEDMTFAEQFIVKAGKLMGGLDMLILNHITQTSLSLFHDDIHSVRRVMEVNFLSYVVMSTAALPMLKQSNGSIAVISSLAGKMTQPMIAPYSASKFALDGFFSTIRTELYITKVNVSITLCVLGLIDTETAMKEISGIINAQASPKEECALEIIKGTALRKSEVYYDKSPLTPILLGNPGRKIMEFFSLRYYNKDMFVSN
The next assay concerns the target T2, 11β-HSD-1 (Mus musculus, UniProt P50172).
T2 construct: from tissue; host or cells: whole animal, C57Bl/6N mice
The assay is described as follows: In vivo screen for inhibition of 11β-HSD-1 (mouse cortisone challenge, plasma cortisol). Conditions: 30 mpk oral, lean male C57BI/6N mice, cortisone 1 mg/kg sc, plasma cortisol by ELISA. How it is done:
In Vivo Screen for Inhibition of 11β-HSD-1
Lean male C57BI/6N mice were orally dosed with a solution of dexamethasone (0.5 mg/kg) and test agent or vehicle (20% HPβCD (10 ml/kg)). One hour later, cortisone was administered (1 mg/kg sc in sesame oil). One hour after cortisone administration, animals were euthanized for blood collection, and plasma cortisol levels were determined with a commercially available ELISA.
Background: In an ELISA, binding on a coated surface is turned into a signal by an enzyme label.

T2 sequence (P50172 whole entry): as above
T1 sequence (P28845 whole entry): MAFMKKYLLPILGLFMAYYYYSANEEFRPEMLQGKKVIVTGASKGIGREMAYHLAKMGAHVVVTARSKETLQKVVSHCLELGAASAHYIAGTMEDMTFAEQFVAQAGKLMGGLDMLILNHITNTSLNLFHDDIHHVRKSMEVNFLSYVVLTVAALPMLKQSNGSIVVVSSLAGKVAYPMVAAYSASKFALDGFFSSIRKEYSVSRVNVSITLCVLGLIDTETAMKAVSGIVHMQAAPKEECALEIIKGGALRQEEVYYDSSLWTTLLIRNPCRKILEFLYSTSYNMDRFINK

Regarding `CC1(C)CC2CC(C)(CN2S(=O)(=O)c2ccc(C(C)(C)C)cc2)C1` (stereo not drawn) [Compound No. 1], the results for the IC50 at Human 11β-HSD1 and on Mouse 11β-HSD-1 were 31 nM and 71 nM, respectively. For the same compound, the “Mouse cort. challenge % I @ 30 mpk” value at 11β-HSD-1 was 30%.
Take `Cc1ccccc1S(=O)(=O)N1CC2(C)CC1CC(C)(C)C2` (stereo not drawn) [Compound No. 5]: the values for the IC50 on Human 11β-HSD1 and against Mouse 11β-HSD-1 were 3010 nM and 18200 nM, respectively.
As for `Cc1ccc(S(=O)(=O)N2CC3(C)CC2CC(C)(C)C3)cc1` (stereo not drawn) [Compound No. 6], the IC50 (usually the concentration that inhibits the measured activity by half) on Human 11β-HSD1 stood at 247 nM; at Mouse 11β-HSD-1, 670 nM.
Taken in the same sequence, the figures for `CC(=O)c1ccc(S(=O)(=O)N2CC3(C)CC2CC(C)(C)C3)cc1` (stereo not drawn) [Compound No. 16] were 139 nM and 732 nM.
Regarding `CCC(C)(C)c1ccc(S(=O)(=O)N2CC3(C)CC2CC(C)(C)C3)cc1` (stereo not drawn) [Compound No. 23], the IC50 at Human 11β-HSD1 stood at 28 nM; against Mouse 11β-HSD-1, 19 nM. In addition, on 11β-HSD-1, the “Mouse cort. challenge % I @ 30 mpk” value turned out to be 26%.
In the case of `CC1(C)CC2CC(C)(CN2S(=O)(=O)c2ccc(Cl)c3nonc23)C1` (stereo not drawn) [compound 3], the IC50 is 407 nM at Human 11β-HSD1 and 1870 nM against Mouse 11β-HSD-1.
Taken in the same sequence, the figures for `CC1(C)CC2CC(C)(CN2S(=O)(=O)Cc2ccccc2)C1` (stereo not drawn) [compound 4] were 3390 nM and 7930 nM.
With `CCc1ccc(S(=O)(=O)N2CC3(C)CC2CC(C)(C)C3)cc1` (stereo not drawn) [compound 9], the results for the IC50 on Human 11β-HSD1 and against Mouse 11β-HSD-1 were 190 nM and 420 nM, respectively.
In the case of `COc1cccc(S(=O)(=O)N2CC3(C)CC2CC(C)(C)C3)c1` (stereo not drawn) [compound 10], the IC50 at Human 11β-HSD1 is 2510 nM; against Mouse 11β-HSD-1, 3170 nM.
For the compound `CC1(C)CC2CC(C)(CN2S(=O)(=O)c2ccccc2Cl)C1` (stereo not drawn) [compound 12], the IC50 at Human 11β-HSD1 worked out at 1410 nM; on Mouse 11β-HSD-1, 28200 nM.
As to `CC1(C)CC2CC(C)(CN2S(=O)(=O)c2ccc(Cl)cc2)C1` (stereo not drawn) [compound 13], the IC50 at Human 11β-HSD1 was 407 nM; against Mouse 11β-HSD-1 it was 2480 nM.
Turning to `CC(C)c1ccc(S(=O)(=O)N2CC3(C)CC2CC(C)(C)C3)cc1` (stereo not drawn) [compound 17], the IC50 stood at 67 nM at Human 11β-HSD1 and 127 nM against Mouse 11β-HSD-1.
Taken in the same sequence, the figures for `CC1(C)CC2CC(C)(CN2S(=O)(=O)c2ccc(-c3ccccc3)cc2)C1` (stereo not drawn) [compound 25] were 169 nM and 364 nM.
For `CC1(C)CC2CC(C)(CN2S(=O)(=O)c2ccccc2C#N)C1` (stereo not drawn) [compound 29], in that order: 5710 nM and 13300 nM.
For `CC1(C)CC2CC(C)(CN2S(=O)(=O)c2ccc(I)cc2)C1` (stereo not drawn) [compound 32], the IC50 on Human 11β-HSD1 stood at 2510 nM; against Mouse 11β-HSD-1 it was 3170 nM.
On to `CC(O)c1ccc(S(=O)(=O)N2CC3(C)CC2CC(C)(C)C3)cc1` (stereo not drawn) [compound 44], for which the IC50 on Human 11β-HSD1 was found to be 16 nM; against Mouse 11β-HSD-1, 67 nM. The “Mouse cort. challenge % I @ 30 mpk” value on 11β-HSD-1 is given as 63%.
As to `COC(C)c1ccc(S(=O)(=O)N2CC3(C)CC2CC(C)(C)C3)cc1` (stereo not drawn) [compound 45], the IC50 worked out at 19 nM on Human 11β-HSD1 and 27 nM at Mouse 11β-HSD-1. Moreover, on 11β-HSD-1, the “Mouse cort. challenge % I @ 30 mpk” value is reported as 16%.
Take `CCOC(C)c1ccc(S(=O)(=O)N2CC3(C)CC2CC(C)(C)C3)cc1` (stereo not drawn) [compound 46]: the results for the IC50 on Human 11β-HSD1 and at Mouse 11β-HSD-1 were 10 nM and 87 nM, respectively.
For the compound `CC1(C)CC2CC(C)(CN2S(=O)(=O)c2ccc(C(F)(F)F)cc2)C1` (stereo not drawn) [compound 48], the IC50 at Human 11β-HSD1 was found to be 268 nM; against Mouse 11β-HSD-1, 686 nM.
With `COC(C)(C)c1ccc(S(=O)(=O)N2CC3CC(C)(C2)CC3(C)C)cc1` (stereo not drawn) [compound 49], the IC50 is 23 nM at Human 11β-HSD1 and 11 nM at Mouse 11β-HSD-1. Further, the “Mouse cort. challenge % I @ 30 mpk” value at 11β-HSD-1 is reported as 19%.
For `CC1(C)CC2CC(C)(CN2S(=O)(=O)c2ccc(C(C)(C)O)cc2)C1` (stereo not drawn) [compound 50], in that order: 7 nM, 43 nM and 43%.
As to `CC1(C)CC2CC(C)(CN2S(=O)(=O)c2ccc(C3CCCCC3)cc2)C1` (stereo not drawn) [compound 61], the IC50 at Human 11β-HSD1 came out at 415 nM; against Mouse 11β-HSD-1, 165 nM.
As for `CC1(C)CC2CC(C)(CN2S(=O)(=O)c2ccc(-c3cnco3)cc2)C1` (stereo not drawn) [compound 62], the IC50 was determined as 96 nM at Human 11β-HSD1 and 309 nM against Mouse 11β-HSD-1.
In the case of `CC1(C)CC2CC(C)(CN2S(=O)(=O)c2ccc(-c3csnn3)cc2)C1` (stereo not drawn) [compound 63], the results for the IC50 at Human 11β-HSD1 and on Mouse 11β-HSD-1 were 111 nM and 305 nM, respectively.
For the compound `CC(C)Oc1ccc(S(=O)(=O)N2CC3(C)CC2CC(C)(C)C3)cc1` (stereo not drawn) [compound 64], the IC50 on Human 11β-HSD1 amounted to 340 nM; against Mouse 11β-HSD-1, 217 nM.
On to `CCCCc1ccc(S(=O)(=O)N2CC3(C)CC2CC(C)(C)C3)cc1` (stereo not drawn) [compound 65], for which the IC50 at Human 11β-HSD1 was found to be 372 nM; on Mouse 11β-HSD-1, 950 nM.
With `CCC(C)c1ccc(S(=O)(=O)N2CC3(C)CC2CC(C)(C)C3)cc1` (stereo not drawn) [compound 68], the IC50 stood at 55 nM at Human 11β-HSD1 and 112 nM on Mouse 11β-HSD-1.
For `CCC(C)(O)c1ccc(S(=O)(=O)N2CC3(C)CC2CC(C)(C)C3)cc1` (stereo not drawn) [compound 69], in that order: 30 nM and 68 nM.
Consider `CC1(C)CC2CC(C)(CN2S(=O)(=O)c2ccc([N+](=O)[O-])cc2)C1` (stereo not drawn) [compound 75], for which the IC50 at Human 11β-HSD1 stood at 126 nM; against Mouse 11β-HSD-1, 5940 nM.
For `CC1(C)CC2CC(C)(CN2S(=O)(=O)c2ccc(C#N)cc2)C1` (stereo not drawn) [compound 76], in that order: 126 nM and 1820 nM.
